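Briefly, cells in 96-well plates were exposed to five compound concentrations for 48 h, and endpoints were estimated by linear interpolation. The concentration for full growth arrest is given as TGI.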
What was measured:
Experiment in all cases: NCI anticancer screen, dose series, 48 h
NCI-H460 lung = tested on: NCI-H460 lung
RPMI-8226 leukemia = tested on: RPMI-8226 leukemia
SK-OV-3 ovarian = tested on: SK-OV-3 ovarian
SF-295 CNS = tested on: SF-295 CNS
HL-60(TB) leukemia = tested on: HL-60(TB) leukemia
HOP-62 NSCLC = tested on: HOP-62 NSCLC
SK-MEL-28 melanoma = tested on: SK-MEL-28 melanoma
OVCAR-5 ovarian = tested on: OVCAR-5 ovarian
UO-31 renal = tested on: UO-31 renal
RXF 393 renal = tested on: RXF 393 renal
SW-620 colon = tested on: SW-620 colon
CCRF-CEM leukemia = tested on: CCRF-CEM leukemia
786-0 renal = tested on: 786-0 renal
HOP-92 NSCLC = tested on: HOP-92 NSCLC
SF-268 CNS = tested on: SF-268 CNS
UACC-257 melanoma = tested on: UACC-257 melanoma
SF-539 CNS = tested on: SF-539 CNS
LOX IMVI melanoma = tested on: LOX IMVI melanoma
ACHN renal = tested on: ACHN renal
COLO 205 colon = tested on: COLO 205 colon
UACC-62 melanoma = tested on: UACC-62 melanoma
KM12 colon = tested on: KM12 colon
SN12C renal = tested on: SN12C renal
M19-MEL melanoma = tested on: M19-MEL melanoma
SR leukemia = tested on: SR leukemia
CAKI-1 renal = tested on: CAKI-1 renal
HCC-2998 colon = tested on: HCC-2998 colon
M14 melanoma = tested on: M14 melanoma
A498 renal = tested on: A498 renal
DMS 114 small cell lung = tested on: DMS 114 small cell lung
A549 NSCLC = tested on: A549 NSCLC
OVCAR-4 ovarian = tested on: OVCAR-4 ovarian
SNB-78 CNS = tested on: SNB-78 CNS
SK-MEL-5 melanoma = tested on: SK-MEL-5 melanoma
NCI-H23 lung = tested on: NCI-H23 lung
LXFL 529 NSCLC = tested on: LXFL 529 NSCLC
U251 CNS = tested on: U251 CNS
EKVX NSCLC = tested on: EKVX NSCLC
OVCAR-3 ovarian = tested on: OVCAR-3 ovarian
K-562 leukemia = tested on: K-562 leukemia
MALME-3M melanoma = tested on: MALME-3M melanoma
KM20L2 colon = tested on: KM20L2 colon
TK-10 renal = tested on: TK-10 renal
DMS 273 small cell lung = tested on: DMS 273 small cell lung
MOLT-4 leukemia = tested on: MOLT-4 leukemia
NCI-H522 lung = tested on: NCI-H522 lung
SNB-19 CNS = tested on: SNB-19 CNS
SNB-75 CNS = tested on: SNB-75 CNS
HCT-116 colon = tested on: HCT-116 colon
SK-MEL-2 melanoma = tested on: SK-MEL-2 melanoma
OVCAR-8 ovarian = tested on: OVCAR-8 ovarian
DLD-1 colon = tested on: DLD-1 colon
NCI-H226 lung = tested on: NCI-H226 lung
HT29 colon = tested on: HT29 colon
IGROV1 ovarian = tested on: IGROV1 ovarian
MDA-MB-231 breast = tested on: MDA-MB-231 breast
MDA-MB-435 = tested on: MDA-MB-435
NCI/ADR-RES ovarian = tested on: NCI/ADR-RES ovarian
MCF7 breast = tested on: MCF7 breast
HS 578T breast = tested on: HS 578T breast
HCT-15 colon = tested on: HCT-15 colon
DU-145 prostate = tested on: DU-145 prostate
T-47D breast = tested on: T-47D breast
PC-3 prostate = tested on: PC-3 prostate
MDA-N = tested on: MDA-N
BT-549 breast = tested on: BT-549 breast

Measured: TGI

Cc1cn2c(=O)c3ccccc3nc2s1
> 100 µM: NCI-H460 lung | RPMI-8226 leukemia | SK-OV-3 ovarian | SF-295 CNS | HL-60(TB) leukemia | HOP-62 NSCLC | SK-MEL-28 melanoma | OVCAR-5 ovarian | UO-31 renal | RXF 393 renal | SW-620 colon | CCRF-CEM leukemia | 786-0 renal | HOP-92 NSCLC | SF-268 CNS | UACC-257 melanoma | SF-539 CNS | LOX IMVI melanoma | ACHN renal | COLO 205 colon | UACC-62 melanoma | KM12 colon | SN12C renal | M19-MEL melanoma | SR leukemia | CAKI-1 renal | HCC-2998 colon | M14 melanoma | A498 renal | DMS 114 small cell lung | A549 NSCLC | OVCAR-4 ovarian | SNB-78 CNS | SK-MEL-5 melanoma | NCI-H23 lung | LXFL 529 NSCLC | U251 CNS | EKVX NSCLC | OVCAR-3 ovarian | K-562 leukemia | MALME-3M melanoma | KM20L2 colon | TK-10 renal | DMS 273 small cell lung | MOLT-4 leukemia | NCI-H522 lung | SNB-19 CNS | SNB-75 CNS | HCT-116 colon | SK-MEL-2 melanoma | OVCAR-8 ovarian | DLD-1 colon | NCI-H226 lung | HT29 colon | IGROV1 ovarian

COn1cc(C=O)c2ccccc21
62.7 µM: MDA-N
> 95.9 µM: SF-295 CNS
34.9 µM: MDA-MB-435
53.7 µM: HCC-2998 colon
> 71.4 µM: SR leukemia
> 93 µM: TK-10 renal
> 100 µM: NCI-H460 lung | RPMI-8226 leukemia | MDA-MB-231 breast | SK-OV-3 ovarian | HOP-62 NSCLC | SK-MEL-28 melanoma | OVCAR-5 ovarian | UO-31 renal | RXF 393 renal | SW-620 colon | 786-0 renal | HOP-92 NSCLC | SF-268 CNS | UACC-257 melanoma | SF-539 CNS | LOX IMVI melanoma | ACHN renal | NCI/ADR-RES ovarian | COLO 205 colon | UACC-62 melanoma | SN12C renal | CAKI-1 renal | M14 melanoma | A549 NSCLC | OVCAR-4 ovarian | SK-MEL-5 melanoma | MCF7 breast | NCI-H23 lung | HS 578T breast | HCT-15 colon | DU-145 prostate | U251 CNS | EKVX NSCLC | OVCAR-3 ovarian | K-562 leukemia | T-47D breast | MALME-3M melanoma | MOLT-4 leukemia | NCI-H522 lung | SNB-19 CNS | HCT-116 colon | SK-MEL-2 melanoma | PC-3 prostate | OVCAR-8 ovarian | HT29 colon | IGROV1 ovarian | BT-549 breast
3.97 µM: A498 renal
> 84.9 µM: NCI-H226 lung
> 56.5 µM: KM12 colon
1.34 µM: CCRF-CEM leukemia
1.52 µM: HL-60(TB) leukemia
> 95.1 µM: SNB-75 CNS

CC1(C)OCC2OC3(c4nc(C#N)c(N)o4)OC(C)(C)OC3C2O1 (configuration not stated)
> 100 µM: NCI-H460 lung | RPMI-8226 leukemia | MDA-MB-231 breast | SK-OV-3 ovarian | SF-295 CNS | HL-60(TB) leukemia | HOP-62 NSCLC | SK-MEL-28 melanoma | OVCAR-5 ovarian | UO-31 renal | RXF 393 renal | SW-620 colon | CCRF-CEM leukemia | 786-0 renal | HOP-92 NSCLC | SF-268 CNS | UACC-257 melanoma | SF-539 CNS | LOX IMVI melanoma | MDA-MB-435 | ACHN renal | NCI/ADR-RES ovarian | COLO 205 colon | UACC-62 melanoma | KM12 colon | SN12C renal | SR leukemia | CAKI-1 renal | HCC-2998 colon | M14 melanoma | A498 renal | A549 NSCLC | OVCAR-4 ovarian | SK-MEL-5 melanoma | MCF7 breast | NCI-H23 lung | HS 578T breast | HCT-15 colon | DU-145 prostate | U251 CNS | EKVX NSCLC | OVCAR-3 ovarian | K-562 leukemia | T-47D breast | MALME-3M melanoma | TK-10 renal | MOLT-4 leukemia | NCI-H522 lung | SNB-19 CNS | SNB-75 CNS | HCT-116 colon | SK-MEL-2 melanoma | PC-3 prostate | MDA-N | OVCAR-8 ovarian | NCI-H226 lung | HT29 colon | IGROV1 ovarian | BT-549 breast

COc1ccc(CCNC2=CC(=O)c3ncccc3C2=O)cc1OC
6.63 µM: OVCAR-5 ovarian
3.14 µM: LOX IMVI melanoma
2.51 µM: A549 NSCLC
17.2 µM: OVCAR-8 ovarian
10.6 µM: HL-60(TB) leukemia
3.72 µM: MDA-MB-231 breast
5.09 µM: HCT-15 colon
4.68 µM: HCC-2998 colon
39.1 µM: CCRF-CEM leukemia
2.69 µM: SK-MEL-28 melanoma | M14 melanoma
1.24 µM: UACC-62 melanoma
> 75.2 µM: KM12 colon
2.13 µM: SNB-75 CNS
16.7 µM: OVCAR-4 ovarian
8.28 µM: K-562 leukemia
0.924 µM: MDA-MB-435
> 43 µM: RPMI-8226 leukemia
5.32 µM: HS 578T breast
4.73 µM: SF-539 CNS | HT29 colon
2.82 µM: BT-549 breast
29.6 µM: EKVX NSCLC
7.27 µM: SNB-19 CNS
7.9 µM: HOP-62 NSCLC
3.19 µM: UACC-257 melanoma | NCI-H226 lung
5.54 µM: SW-620 colon
15.2 µM: RXF 393 renal
2.03 µM: MALME-3M melanoma
14 µM: U251 CNS
23.7 µM: MOLT-4 leukemia
23.4 µM: PC-3 prostate
13.1 µM: UO-31 renal
3.01 µM: MCF7 breast
> 86 µM: TK-10 renal
9.32 µM: NCI/ADR-RES ovarian
6.73 µM: SK-MEL-2 melanoma
34.9 µM: SF-268 CNS
12.2 µM: CAKI-1 renal
2.45 µM: MDA-N
10.2 µM: HCT-116 colon
3.39 µM: A498 renal
> 79.8 µM: SR leukemia
5.12 µM: OVCAR-3 ovarian
8.36 µM: NCI-H522 lung
35.8 µM: HOP-92 NSCLC
21.2 µM: 786-0 renal
0.793 µM: SK-MEL-5 melanoma
1.75 µM: NCI-H460 lung
24.7 µM: T-47D breast
2.58 µM: NCI-H23 lung
19.8 µM: ACHN renal
3.23 µM: COLO 205 colon
3.59 µM: SN12C renal
3.57 µM: DU-145 prostate
7.63 µM: IGROV1 ovarian
2.21 µM: SF-295 CNS
24.4 µM: SK-OV-3 ovarian

Source: PubChem BioAssay (NCI)
